Reference: patent publication US9708500B2, “Liquid composition, pigment dispersion liquid, and aqueous ink composition for ink jet recording” (Seiko Epson Corporation, priority 2015, dated 2017)

Test: distribution coefficient of water-octanol (log P), OECD Test Guideline 107
Details: for log P (distribution coefficient of water-octanol): OECD Test Guideline 107
Excerpt: Here, the distribution coefficient of water-octanol, that is, a log P value represents a value which is defined by OECD Test Guideline 107. As the log P value is high, hydrophobicity is high, and as the log P value is low, hydrophilicity is high.

Compound	log P (distribution coefficient of water-octanol)	logP (octanol/water)
CCCC(=O)OCC(O)CO (stereo not drawn) [butyric acid 2,3-dihydroxypropyl]	−0.21	–
CCCC(=O)OCC(COC(=O)CCC)OC(=O)CCC [glycerin tributyrate]	–	2.95
CCCCCC(=O)OCC(O)CO (stereo not drawn) [hexanoic acid 2,3-dihydroxypropyl]	0.85	–
